Experiment: xn = mol fraction of the nth substance listed
Conditions: 101 kPa, Liquid, Vibrating tube method

CCNC=O [N-ethylformamide] + CCCC[N+]1(C)CCCC1.FC(F)(F)C(F)(F)[P-](F)(F)(F)(C(F)(F)C(F)(F)F)C(F)(F)C(F)(F)F
mass density [kg/m3]
Conditions	293.15 K	298.15 K	303.15 K	308.15 K	313.15 K	318.15 K	323.15 K
x2 = 0.0355	1046.38	1042.01	1037.61	1033.05	1028.58	1024.03	1019.35
x2 = 0.0753	1128.67	1124.07	1119.47	1114.62	1109.94	1105.19	1100.26
x2 = 0.0995	1169.56	1164.94	1160.15	1155.23	1150.34	1145.54	1140.56
x2 = 0.1508	1240.4	1235.52	1230.53	1225.54	1220.42	1215.44	1210.24
x2 = 0.2001	1293.64	1288.61	1283.5	1278.35	1273.19	1267.97	1262.79
x2 = 0.3045	1375.94	1370.73	1365.53	1360.23	1354.95	1349.61	1344.26
x2 = 0.3996	1429.28	1424.04	1418.68	1413.37	1407.95	1402.56	1397.21
x2 = 0.5028	1472.71	1467.38	1462.01	1456.63	1451.21	1445.76	1440.28
x2 = 0.5527	1489.92	1484.53	1479.12	1473.75	1468.31	1462.86	1457.36
x2 = 0.5989	1504.15	1498.78	1493.4	1487.95	1482.48	1477.03	1471.54
x2 = 0.7015	1531.11	1525.64	1520.2	1514.75	1509.27	1503.82	1498.32
x2 = 0.7983	1552.06	1546.66	1541.23	1535.76	1530.25	1524.73	1519.18
x2 = 0.8866	1568.75	1563.32	1557.82	1552.35	1546.84	1541.33	1535.77
x2 = 0.951	1580.11	1574.66	1569.19	1563.71	1558.18	1552.64	1547.05

CCCC[N+]1(C)CCCC1.FC(F)(F)C(F)(F)[P-](F)(F)(F)(C(F)(F)C(F)(F)F)C(F)(F)C(F)(F)F + CC(=O)N(C)C
mass density [kg/m3]
Conditions	293.15 K	298.15 K	303.15 K	308.15 K	313.15 K	318.15 K	323.15 K
x1 = 0.0182	983.51	978.8	974.05	969.23	964.38	959.48	954.43
x1 = 0.0658	1076.12	1071.23	1066.29	1061.3	1056.27	1051.2	1046.01
x1 = 0.099	1128.83	1123.84	1118.81	1113.75	1108.63	1103.46	1098.22
x1 = 0.1925	1243.41	1238.24	1233.05	1227.86	1222.59	1217.27	1211.86
x1 = 0.2995	1334.81	1329.56	1324.29	1318.96	1313.61	1308.22	1302.76
x1 = 0.4032	1399.72	1394.36	1389.05	1383.7	1378.3	1372.86	1367.34
x1 = 0.5012	1446.97	1441.77	1436.59	1431.01	1425.38	1420.2	1414.53
x1 = 0.6048	1487.12	1482	1476.86	1470.97	1465.48	1460.22	1454.65
x1 = 0.7078	1520.04	1514.92	1509.86	1504.04	1498.52	1492.71	1487.58
x1 = 0.806	1546.68	1541.65	1536.23	1530.12	1524.91	1519.13	1513.85
x1 = 0.8469	1556.58	1551.46	1546.01	1539.99	1534.65	1528.99	1523.64
x1 = 0.9176	1572.41	1567.01	1561.51	1555.89	1550.24	1544.79	1539.24

CCCC[N+]1(C)CCCC1.FC(F)(F)C(F)(F)[P-](F)(F)(F)(C(F)(F)C(F)(F)F)C(F)(F)C(F)(F)F + CNC=O
mass density [kg/m3]
Conditions	293.15 K	298.15 K	303.15 K	308.15 K	313.15 K	318.15 K	323.15 K
x1 = 0.017	1058.37	1053.77	1049.14	1044.53	1039.79	1035.11	1030.3
x1 = 0.038	1115.08	1110.31	1105.47	1100.72	1095.79	1091	1085.98
x1 = 0.064	1172.33	1167.39	1162.43	1157.5	1152.45	1147.53	1142.27
x1 = 0.1395	1288.62	1283.34	1278.09	1272.85	1267.61	1262.38	1256.78
x1 = 0.1994	1349.8	1344.44	1339.03	1333.6	1328.11	1322.58	1317.13
x1 = 0.2991	1419.35	1413.93	1408.4	1402.86	1397.22	1391.56	1385.88
x1 = 0.4005	1466.49	1460.95	1455.39	1449.79	1444.2	1438.48	1432.75
x1 = 0.5044	1501.13	1495.58	1490.07	1484.49	1478.87	1473.25	1467.48
x1 = 0.5964	1524.64	1519.12	1513.49	1507.92	1502.28	1496.79	1491.13
x1 = 0.6471	1535.54	1530.04	1524.39	1518.85	1513.18	1507.72	1502.01
x1 = 0.7548	1555.34	1549.77	1544.13	1538.58	1532.92	1527.43	1521.8
x1 = 0.8413	1568.65	1563.05	1557.45	1551.88	1546.25	1540.73	1535.12
x1 = 0.9029	1577.04	1571.47	1565.91	1560.34	1554.73	1549.18	1543.58

Reference: the NIST ThermoML archive (doi:10.1021/je400803f)
